According to BindingDB's records for doi:10.1021/jm950759z (Cooperation Pharmaceutique Fran?aise, 1997):

Assay: Inhibition of [3H]spiperone binding to Dopamine receptor D3 in bovine cortex

O=C1CC2(CCCC2)CC(=O)N1CCCCN1CCN(c2ncccn2)CC1 [BUSPAR]
Ki: 660 nM
